# Results taken from doi:10.1101/2023.03.24.534094v2 (biorxiv, 2023).
# Read-outs that look alike come from different tables or passages of the source.
# Columns and labels:
# Assay in all cases: biochemical
# JNK1 = JNK1 (Homo sapiens, UniProt P45983)
# MER = target: T1, MER (Homo sapiens, UniProt Q12866)
# T1 sequence (Q12866 1-999): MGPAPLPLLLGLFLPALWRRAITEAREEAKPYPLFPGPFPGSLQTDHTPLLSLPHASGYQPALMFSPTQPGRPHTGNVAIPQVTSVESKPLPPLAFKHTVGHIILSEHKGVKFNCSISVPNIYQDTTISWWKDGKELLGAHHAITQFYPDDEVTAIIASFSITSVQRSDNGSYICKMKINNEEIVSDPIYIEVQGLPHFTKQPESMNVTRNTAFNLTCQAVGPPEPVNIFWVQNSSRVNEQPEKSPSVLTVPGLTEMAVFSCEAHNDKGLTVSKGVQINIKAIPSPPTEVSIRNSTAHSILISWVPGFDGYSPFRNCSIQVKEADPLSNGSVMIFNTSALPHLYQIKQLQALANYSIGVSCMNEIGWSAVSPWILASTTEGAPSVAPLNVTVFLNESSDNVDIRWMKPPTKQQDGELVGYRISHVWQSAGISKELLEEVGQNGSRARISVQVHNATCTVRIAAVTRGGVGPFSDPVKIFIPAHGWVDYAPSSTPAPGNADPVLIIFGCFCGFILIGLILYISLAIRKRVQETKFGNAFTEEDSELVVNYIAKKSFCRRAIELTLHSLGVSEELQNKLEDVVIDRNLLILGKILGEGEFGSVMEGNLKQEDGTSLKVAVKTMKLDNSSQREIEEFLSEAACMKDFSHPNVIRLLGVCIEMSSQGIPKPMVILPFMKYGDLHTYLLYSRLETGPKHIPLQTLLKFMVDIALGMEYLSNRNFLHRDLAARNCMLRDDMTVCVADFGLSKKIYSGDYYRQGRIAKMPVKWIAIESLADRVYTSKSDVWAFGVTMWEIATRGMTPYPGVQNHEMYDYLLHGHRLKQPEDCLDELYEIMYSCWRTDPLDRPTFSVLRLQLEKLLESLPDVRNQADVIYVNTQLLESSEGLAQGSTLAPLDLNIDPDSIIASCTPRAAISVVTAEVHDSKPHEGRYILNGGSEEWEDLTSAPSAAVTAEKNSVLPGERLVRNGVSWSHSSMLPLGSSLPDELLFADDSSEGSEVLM
# PCTAIRE1 = PCTAIRE1 (Homo sapiens, UniProt Q00536)
# Chain of PCTAIRE1 (Q00536 whole entry): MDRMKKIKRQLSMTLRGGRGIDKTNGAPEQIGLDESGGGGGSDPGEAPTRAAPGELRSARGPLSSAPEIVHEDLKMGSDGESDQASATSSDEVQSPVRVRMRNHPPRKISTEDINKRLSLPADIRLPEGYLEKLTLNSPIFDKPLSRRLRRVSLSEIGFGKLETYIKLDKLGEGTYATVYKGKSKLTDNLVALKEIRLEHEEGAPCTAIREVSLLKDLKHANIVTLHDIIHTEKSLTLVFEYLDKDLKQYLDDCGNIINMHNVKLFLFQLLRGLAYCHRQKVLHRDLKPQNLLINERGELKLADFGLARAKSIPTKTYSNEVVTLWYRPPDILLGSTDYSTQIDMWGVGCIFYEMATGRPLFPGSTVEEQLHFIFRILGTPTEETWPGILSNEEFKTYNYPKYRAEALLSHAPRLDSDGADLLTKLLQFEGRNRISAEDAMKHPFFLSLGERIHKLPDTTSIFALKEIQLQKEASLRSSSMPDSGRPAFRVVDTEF
# Wnk1 = Wnk1 (Homo sapiens, UniProt Q9H4A3)
# Chain of Wnk1 (Q9H4A3 whole entry): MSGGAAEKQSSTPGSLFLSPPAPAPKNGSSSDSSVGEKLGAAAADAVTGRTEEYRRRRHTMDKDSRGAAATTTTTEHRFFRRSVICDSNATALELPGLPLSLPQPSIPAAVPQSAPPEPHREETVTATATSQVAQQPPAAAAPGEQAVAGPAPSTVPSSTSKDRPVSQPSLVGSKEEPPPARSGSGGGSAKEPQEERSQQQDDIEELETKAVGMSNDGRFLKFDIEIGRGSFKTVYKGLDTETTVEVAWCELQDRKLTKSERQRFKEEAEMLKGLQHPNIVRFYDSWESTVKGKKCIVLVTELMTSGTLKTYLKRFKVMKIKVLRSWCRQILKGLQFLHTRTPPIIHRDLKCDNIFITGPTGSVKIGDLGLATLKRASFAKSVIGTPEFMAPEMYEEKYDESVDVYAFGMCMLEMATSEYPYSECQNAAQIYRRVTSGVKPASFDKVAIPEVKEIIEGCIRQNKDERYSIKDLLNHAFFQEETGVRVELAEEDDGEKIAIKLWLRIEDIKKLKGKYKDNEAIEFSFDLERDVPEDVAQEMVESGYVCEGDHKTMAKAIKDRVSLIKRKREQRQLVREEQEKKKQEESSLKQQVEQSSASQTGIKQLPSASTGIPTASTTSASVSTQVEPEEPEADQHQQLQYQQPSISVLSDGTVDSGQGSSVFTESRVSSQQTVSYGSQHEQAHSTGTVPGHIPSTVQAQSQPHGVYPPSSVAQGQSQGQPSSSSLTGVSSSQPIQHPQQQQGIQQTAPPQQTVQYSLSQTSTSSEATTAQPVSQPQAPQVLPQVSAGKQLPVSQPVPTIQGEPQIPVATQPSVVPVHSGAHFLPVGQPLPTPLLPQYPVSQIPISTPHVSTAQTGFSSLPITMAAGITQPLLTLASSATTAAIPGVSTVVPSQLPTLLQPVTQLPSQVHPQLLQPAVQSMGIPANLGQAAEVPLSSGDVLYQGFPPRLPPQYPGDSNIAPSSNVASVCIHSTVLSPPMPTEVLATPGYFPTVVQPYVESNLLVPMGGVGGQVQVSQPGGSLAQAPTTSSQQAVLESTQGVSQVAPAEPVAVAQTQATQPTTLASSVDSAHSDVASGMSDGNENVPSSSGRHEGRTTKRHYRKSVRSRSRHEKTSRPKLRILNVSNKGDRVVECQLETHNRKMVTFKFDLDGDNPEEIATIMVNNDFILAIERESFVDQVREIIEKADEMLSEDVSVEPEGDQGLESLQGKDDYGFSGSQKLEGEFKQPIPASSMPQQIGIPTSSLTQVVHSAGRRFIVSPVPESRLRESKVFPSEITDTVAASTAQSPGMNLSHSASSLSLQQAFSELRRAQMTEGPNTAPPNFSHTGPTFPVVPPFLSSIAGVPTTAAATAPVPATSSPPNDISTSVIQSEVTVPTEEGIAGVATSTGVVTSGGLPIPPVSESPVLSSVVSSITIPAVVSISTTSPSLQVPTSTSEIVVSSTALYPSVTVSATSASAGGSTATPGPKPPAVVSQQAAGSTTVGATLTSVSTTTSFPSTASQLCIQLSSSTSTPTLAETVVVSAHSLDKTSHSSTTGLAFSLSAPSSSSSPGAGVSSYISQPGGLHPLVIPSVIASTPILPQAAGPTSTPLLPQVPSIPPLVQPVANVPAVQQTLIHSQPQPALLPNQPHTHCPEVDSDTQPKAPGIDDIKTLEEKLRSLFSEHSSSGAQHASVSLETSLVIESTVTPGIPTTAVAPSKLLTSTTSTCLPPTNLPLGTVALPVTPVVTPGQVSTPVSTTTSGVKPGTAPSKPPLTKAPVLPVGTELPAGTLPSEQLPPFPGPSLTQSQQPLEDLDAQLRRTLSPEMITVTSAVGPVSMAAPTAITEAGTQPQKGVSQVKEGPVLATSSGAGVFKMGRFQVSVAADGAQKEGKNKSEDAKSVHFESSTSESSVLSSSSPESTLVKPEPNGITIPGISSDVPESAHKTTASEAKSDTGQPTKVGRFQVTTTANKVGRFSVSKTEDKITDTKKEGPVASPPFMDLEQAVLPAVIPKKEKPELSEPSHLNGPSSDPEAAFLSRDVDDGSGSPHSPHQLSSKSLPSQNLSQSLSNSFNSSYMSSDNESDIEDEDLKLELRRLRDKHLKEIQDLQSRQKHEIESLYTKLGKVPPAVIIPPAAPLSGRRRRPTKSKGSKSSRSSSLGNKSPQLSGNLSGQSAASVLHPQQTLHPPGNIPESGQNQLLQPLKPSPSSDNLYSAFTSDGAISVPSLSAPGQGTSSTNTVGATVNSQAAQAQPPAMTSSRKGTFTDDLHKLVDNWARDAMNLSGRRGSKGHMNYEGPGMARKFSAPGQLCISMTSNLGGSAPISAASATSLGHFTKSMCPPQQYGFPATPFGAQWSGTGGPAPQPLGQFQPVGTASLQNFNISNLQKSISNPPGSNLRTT
# MST3 [1] = target: T2, MST3 (Homo sapiens, UniProt Q9Y6E0)
# T2 sequence (Q9Y6E0 whole entry): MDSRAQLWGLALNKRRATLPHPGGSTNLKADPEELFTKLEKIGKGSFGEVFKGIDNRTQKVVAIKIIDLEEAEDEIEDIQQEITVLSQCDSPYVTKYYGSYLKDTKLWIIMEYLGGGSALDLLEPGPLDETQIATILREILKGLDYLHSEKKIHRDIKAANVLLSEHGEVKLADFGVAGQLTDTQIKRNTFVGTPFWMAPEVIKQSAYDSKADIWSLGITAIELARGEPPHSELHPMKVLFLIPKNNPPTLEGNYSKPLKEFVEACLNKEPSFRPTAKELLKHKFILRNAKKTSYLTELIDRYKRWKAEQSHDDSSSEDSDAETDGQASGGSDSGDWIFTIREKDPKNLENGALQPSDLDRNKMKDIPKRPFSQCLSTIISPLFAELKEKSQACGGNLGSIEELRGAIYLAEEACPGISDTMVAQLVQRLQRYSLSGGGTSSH
# MST1 = target: T3, MST1 (Homo sapiens, UniProt Q13043)
# T3 sequence (Q13043 1-487): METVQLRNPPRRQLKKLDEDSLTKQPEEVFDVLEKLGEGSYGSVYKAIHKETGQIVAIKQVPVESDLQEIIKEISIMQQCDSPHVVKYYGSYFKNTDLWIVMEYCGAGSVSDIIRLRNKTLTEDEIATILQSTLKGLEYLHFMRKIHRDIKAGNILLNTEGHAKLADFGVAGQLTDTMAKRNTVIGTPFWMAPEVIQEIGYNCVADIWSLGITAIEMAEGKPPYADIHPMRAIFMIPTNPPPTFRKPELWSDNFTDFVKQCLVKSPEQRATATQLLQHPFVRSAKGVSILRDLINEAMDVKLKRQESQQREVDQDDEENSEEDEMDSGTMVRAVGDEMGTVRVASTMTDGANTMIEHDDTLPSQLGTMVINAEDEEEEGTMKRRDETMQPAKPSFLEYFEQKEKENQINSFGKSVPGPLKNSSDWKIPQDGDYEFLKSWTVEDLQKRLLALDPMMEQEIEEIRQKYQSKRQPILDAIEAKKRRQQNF
# PAK1 [2] = target: T4, PAK1 (Homo sapiens, UniProt Q13153)
# T4 sequence (Q13153 whole entry): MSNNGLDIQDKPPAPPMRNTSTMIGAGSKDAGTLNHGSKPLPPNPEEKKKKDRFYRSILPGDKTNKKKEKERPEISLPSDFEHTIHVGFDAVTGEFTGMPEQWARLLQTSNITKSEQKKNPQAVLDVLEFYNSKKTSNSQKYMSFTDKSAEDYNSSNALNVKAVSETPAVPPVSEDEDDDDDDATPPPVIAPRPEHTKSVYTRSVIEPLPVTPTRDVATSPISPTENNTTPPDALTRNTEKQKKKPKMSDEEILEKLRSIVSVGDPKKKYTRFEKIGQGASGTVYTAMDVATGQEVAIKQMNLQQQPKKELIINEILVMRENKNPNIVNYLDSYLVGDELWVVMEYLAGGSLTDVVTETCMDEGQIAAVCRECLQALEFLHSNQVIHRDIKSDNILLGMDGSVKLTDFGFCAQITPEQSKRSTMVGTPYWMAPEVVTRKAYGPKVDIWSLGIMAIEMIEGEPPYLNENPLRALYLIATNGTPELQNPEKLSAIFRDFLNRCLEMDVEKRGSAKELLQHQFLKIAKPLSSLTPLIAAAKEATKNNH
# MST3 [3] = target: T2, MST3; remark: listed apart in the source
# PAK1 [4] = target: T4, PAK1; remark: listed apart in the source
# Chain of JNK1 (P45983 whole entry): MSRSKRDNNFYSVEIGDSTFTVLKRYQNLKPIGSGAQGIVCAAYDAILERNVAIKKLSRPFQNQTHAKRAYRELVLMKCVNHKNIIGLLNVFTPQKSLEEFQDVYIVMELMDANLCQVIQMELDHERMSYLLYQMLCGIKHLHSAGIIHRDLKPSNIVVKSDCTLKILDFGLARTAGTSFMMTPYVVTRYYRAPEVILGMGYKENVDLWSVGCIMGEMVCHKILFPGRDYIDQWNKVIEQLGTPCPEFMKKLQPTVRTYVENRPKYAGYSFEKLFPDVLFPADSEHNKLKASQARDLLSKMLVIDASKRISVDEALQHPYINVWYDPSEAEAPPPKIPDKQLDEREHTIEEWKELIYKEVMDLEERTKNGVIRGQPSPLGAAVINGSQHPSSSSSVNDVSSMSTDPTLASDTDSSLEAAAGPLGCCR
structure (smiles),measurement,setting,value
"CNc1ncc2cc(-c3cc(Br)ccc3Cl)c(=O)n(CCCCN)c2n1 [compound 6, 8-(4-Aminobutyl)-6-(5-bromo-2-chlorophenyl)-2-(methylamino)pyrido[2,3-d]pyrimidin-7(8H)-one]",ΔTm at 10 µM,JNK1; read-out: dTm 6,0.2 °C
same,ΔTm at 10 µM,MER; read-out: dTm 6,0.1 °C
same,ΔTm at 10 µM,PCTAIRE1; read-out: dTm 6,1.1 °C
same,ΔTm at 10 µM,Wnk1; read-out: ∆Tm 6,0 °C
same,ΔTm at 10 µM,MST3 [1]; read-out: ∆Tm 6,2.7 °C
"CNc1ncc2cc(-c3cc(F)ccc3F)c(=O)n(CCCCN)c2n1 [compound 5, 8-(4-Aminobutyl)-6-(2,5-difluorophenyl)-2-(methylamino)pyrido[2,3-d]pyrimidin-7(8H)-one]",ΔTm at 10 µM,JNK1; read-out: dTm MR22 (5),5.5 °C
same,ΔTm at 10 µM,MER; read-out: dTm MR22 (5),-0.8 °C
same,ΔTm at 10 µM,PCTAIRE1; read-out: dTm MR22 (5),0.3 °C
same,ΔTm at 10 µM,MST1; read-out: ∆Tm MR22 (5),-0.3 °C
same,ΔTm at 10 µM,Wnk1; read-out: ∆Tm MR22 (5),-0.1 °C
same,ΔTm at 10 µM,MST3 [1]; read-out: ∆Tm MR22 (5),1.6 °C
"CNc1ncc2cc(-c3cc(Cl)ccc3Cl)c(=O)n(CCCCN)c2n1 [compound 8, 8-(4-Aminobutyl)-6-(2,5-dichlorophenyl)-2-(methylamino)pyrido[2,3-d]pyrimidin-7(8H)-one]",ΔTm at 10 µM,PAK1 [2]; read-out: ∆Tm 8,0.7 °C
same,ΔTm at 10 µM,MST3 [3]; read-out: ∆Tm 8,1.9 °C
"CNc1ncc2cc(-c3ccc(-c4cccc(C)n4)cc3Cl)c(=O)n(CC3OCC(N)CO3)c2n1 (stereo not drawn) [compound 2, G-5555]",dTm G-5555 (2),"MER; 10 µM, binder",0.8 °C
same,dTm G-5555 (2),"PCTAIRE1; 10 µM, binder",1.3 °C
same,∆Tm G-5555 (2),"PAK1 [4]; 10 µM, binder",6.4 degC
same,∆Tm G-5555 (2),"MST1; 10 µM, binder",4.5 degC
same,∆Tm G-5555 (2),"Wnk1; 10 µM, binder",2.4 degC
same,∆Tm G-5555 (2),"MST3 [1]; 10 µM, binder",7.5 degC
"CNc1ncc2cc(-c3cc(Cl)ccc3Br)c(=O)n(CCCCN)c2n1 [compound 10, 8-(4-Aminobutyl)-6-(2-bromo-5-chlorophenyl)-2-(methylamino)pyrido[2,3-d]pyrimidin-7(8H)-one]",ΔTm at 10 µM,PAK1 [2]; read-out: ∆Tm 10,0.6 °C
same,ΔTm at 10 µM,MST3 [3]; read-out: ∆Tm 10,2 °C
"CNc1ncc2cc(-c3cc(Br)ccc3Br)c(=O)n(CCCCN)c2n1 [compound 11, 8-(4-Aminobutyl)-6-(2,5-dibromophenyl)-2-(methylamino)pyrido[2,3-d]pyrimidin-7(8H)-one]",ΔTm at 10 µM,PAK1 [2]; read-out: ∆Tm 11,0.7 °C
same,ΔTm at 10 µM,MST3 [3]; read-out: ∆Tm 11,1.9 °C
"CNc1ncc2cc(-c3ccccc3Cl)c(=O)n(CCCCN)c2n1 [compound 4, 8-(4-Aminobutyl)-6-(2-chlorophenyl)-2-(methylamino)pyrido[2,3-d]pyrimidin-7(8H)-one]",ΔTm at 10 µM,JNK1; read-out: dTm MR21 (4),0.9 °C
same,ΔTm at 10 µM,MER; read-out: dTm MR21 (4),2.8 °C
same,ΔTm at 10 µM,PCTAIRE1; read-out: dTm MR21 (4),1.8 °C
same,ΔTm at 10 µM,PAK1 [4]; read-out: ∆Tm MR21 (4),1.6 °C
same,ΔTm at 10 µM,MST1; read-out: ∆Tm MR21 (4),1.5 °C
same,ΔTm at 10 µM,Wnk1; read-out: ∆Tm MR21 (4),-0.4 °C
same,ΔTm at 10 µM,MST3 [1]; read-out: ∆Tm MR21 (4),4.1 °C
"CNc1ncc2cc(-c3cc(Br)ccc3Cl)c(=O)n(C[C@H]3OC[C@H](N)CO3)c2n1 [compound 7, 8-(((2r,5r)-5-Amino-1,3-dioxan-2-yl)methyl)-6-(5-bromo-2-chlorophenyl)-2-(methylamino)pyrido[2,3-d]pyrimidin-7(8H)-one]",ΔTm at 10 µM,JNK1; read-out: dTm 7,0.9 °C
same,ΔTm at 10 µM,MER; read-out: dTm 7,0.2 °C
same,ΔTm at 10 µM,PCTAIRE1; read-out: dTm 7,0.1 °C
same,ΔTm at 10 µM,PAK1 [4]; read-out: ∆Tm 7,0.6 °C
same,ΔTm at 10 µM,Wnk1; read-out: ∆Tm 7,1.1 °C
same,ΔTm at 10 µM,MST3 [1]; read-out: ∆Tm 7,0.8 °C
